# Measurements as given in US8895585B2, “Nicotinamide derivative or salt thereof” (FUJIFILM Corporation, priority 2010, dated 2014).
# Columns and labels:
# [1] = biological target: T1, glutathione S-transferase (GST)-fused full-length human Syk protein (Homo sapiens, UniProt P43405); assay: Syk enzyme assay; type: biochemical; conditions: Syk enzyme assay, Test Example 1; read-out: IC50 of Syk-inhibitory activity
# T1 construct: (GST)-fused full-length human Syk protein; GST (glutathione S-transferase); purchased Carna Biosciences
# Outline: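 Baculovirus-expressed enzyme (1.2 ng) was preincubated with compound in HEPES pH 7.0/MgCl2/DTT buffer, 2 min shaking then 13 min at room temperature. Biotin-EDPDYEWPSA-NH2 (0.4 μM final) and ATP (27 μM final) were added for 40 min at room temperature. EDTA stop, streptavidin-XL/PT66-K TR-FRET at 615/665 nm gave IC50.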
# THP-1 cells = assay: TNFα generation assay; type: cell-based, human; conditions: Homo sapiens, THP-1, THP-1 cells; Table 22; read-out: IC50 in TNFα generation assay
# Outline: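 Secreted TNFα in supernatant quantified by ELISA or AlphaLISA after 7 h culture on human IgG-coated wells (10 μg/ml coating). Cells were IFN-γ-differentiated THP-1 (10 ng/ml, 2 days), exposed to compound for 30 min at room temperature before plating.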
IC50 [1] [nM],IC50 (THP-1 cells) [nM],SMILES
< 10,130 to 200,"CC(C)C[C@H](CN)Nc1nc(Nc2ccc3nccnc3c2)c(C(N)=O)cc1F [Example 006-212, (R)-6-((1-amino-4-methylpentan-2-yl)amino)-5-fluoro-2-((quinoxalin-6-yl)amino)nicotinamide]"
< 10,65 to 130,"NC[C@@H](CC1CC1)Nc1nc(Nc2ccc3ncccc3c2)c(C(N)=O)cc1F [Example 006-214, (R)-6-((1-amino-3-cyclopropylpropan-2-yl)amino)-5-fluoro-2-((quinolin-6-yl)amino)nicotinamide]"
< 10,65 to 130,"COc1ccc2cc(Nc3nc(N[C@@H](CN)CC4CC4)c(F)cc3C(N)=O)cnc2c1 [Example 006-215, (R)-6-((1-amino-3-cyclopropylpropan-2-yl)amino)-5-fluoro-2-((7-methoxyquinolin-3-yl)amino)nicotinamide]"
10 to 50,65 to 130,"C[C@H](N)[C@@H](C)Nc1nc(Nc2cncc(Cl)c2)c(C(N)=O)cc1F [Example 006-216, 6-(((2R,3S)-3-aminobutan-2-yl)amino)-2-((5-chloropyridin-3-yl)amino)-5-fluoronicotinamide]"
< 10,< 65,"C[C@H](N)[C@@H](CC1CC1)Nc1nc(Nc2ccc3ncccc3c2)c(C(N)=O)cc1F [Example 006-217, 6-(((2R,3S)-3-amino-1-cyclopropylbutan-2-yl)amino)-5-fluoro-2-((quinolin-6-yl)amino)nicotinamide]"
< 10,65 to 130,"CC[C@@H](Nc1nc(Nc2cncc(-n3cccn3)c2)c(C(N)=O)cc1F)[C@H](C)N [Example 006-218, 2-((5-(1H-pyrazol-1-yl)pyridin-3-yl)amino)-6-(((2S,3R)-2-aminopentan-3-yl)amino)-5-fluoronicotinamide]"
< 10,< 65,"CCC[C@@H](Nc1nc(Nc2ccnc(-c3ccco3)c2)c(C(N)=O)cc1F)[C@H](C)N [Example 006-220, 6-(((2S,3R)-2-aminohexan-3-yl)amino)-5-fluoro-2-((2-(furan-2-yl)pyridin-4-yl)amino)nicotinamide]"
< 10,65 to 130,"CCC[C@@H](Nc1nc(Nc2ccnc(-n3nccn3)c2)c(C(N)=O)cc1F)[C@H](C)N [Example 006-221, 2-((2-(2H-1,2,3-triazol-2-yl)pyridin-4-yl)amino)-6-(((2S,3R)-2-aminohexan-3-yl)amino)-5-fluoronicotinamide]"
< 10,65 to 130,"CCC[C@@H](Nc1nc(Nc2cncc(-c3ccccc3F)c2)c(C(N)=O)cc1F)[C@H](C)N [Example 006-222, 6-(((2S,3R)-2-aminohexan-3-yl)amino)-5-fluoro-2-((5-(2-fluorophenyl)pyridin-3-yl)amino)nicotinamide]"
< 10,< 65,"CCC[C@@H](Nc1nc(Nc2cncc(C3CC3)c2)c(C(N)=O)cc1F)[C@H](C)N [Example 006-223, 6-(((2S,3R)-2-aminohexan-3-yl)amino)-2-((5-cyclopropylpyridin-3-yl)amino)-5-fluoronicotinamide]"
10 to 50,< 65,"C[C@@H](N)[C@@H](C)Nc1nc(Nc2ccc3ncccc3c2)c(C(N)=O)cc1F [Example 006-224, 6-(((2R,3R)-3-aminobutan-2-yl)amino)-5-fluoro-2-((quinolin-6-yl)amino)nicotinamide]"
< 10,65 to 130,"CC(C)C[C@H](CN)Nc1nc(Nc2ccc3cnn(C)c3c2)c(C(N)=O)cc1F [Example 006-226, (R)-6-((1-amino-4-methylpentan-2-yl)amino)-5-fluoro-2-((1-methyl-1H-indazol-6-yl)amino)nicotinamide]"
< 10,130 to 200,"CC(C)C[C@H](CN)Nc1nc(Nc2cccc3c2cnn3C)c(C(N)=O)cc1F [Example 006-227, (R)-6-((1-amino-4-methylpentan-2-yl)amino)-5-fluoro-2-((1-methyl-1H-indazol-4-yl)amino)nicotinamide]"
< 10,130 to 200,"CC(C)C[C@H](CN)Nc1nc(Nc2ccc3cccnc3c2)c(C(N)=O)cc1F [Example 006-228, (R)-6-((1-amino-4-methylpentan-2-yl)amino)-5-fluoro-2-((quinolin-7-yl)amino)nicotinamide]"
< 10,65 to 130,"CC(C)C[C@H](CN)Nc1nc(Nc2cccc3ncccc23)c(C(N)=O)cc1F [Example 006-229, (R)-6-((1-amino-4-methylpentan-2-yl)amino)-5-fluoro-2-((quinolin-5-yl)amino)nicotinamide]"
< 10,130 to 200,"COc1ccc2ncc(Nc3nc(N[C@@H](CN)CC(C)C)c(F)cc3C(N)=O)cc2c1 [Example 006-232, (R)-6-((1-amino-4-methylpentan-2-yl)amino)-5-fluoro-2-((6-methoxyquinolin-3-yl)amino)nicotinamide]"

IC50 [1] [nM],IC50 (THP-1 cells) [nM],SMILES
10 to 50,130 to 200,"Cc1ccc(Nc2nc(N[C@@H](CN)CC(C)C)c(F)cc2C(N)=O)cn1 [Example 006-233, (R)-6-((1-amino-4-methylpentan-2-yl)amino)-5-fluoro-2-((6-methylpyridin-3-yl)amino)nicotinamide]"
< 10,65 to 130,"COc1cc(Nc2nc(N[C@@H](CN)CC(C)C)c(F)cc2C(N)=O)ccn1 [Example 006-234, (R)-6-((1-amino-4-methylpentan-2-yl)amino)-5-fluoro-2-((2-methoxypyridin-4-yl)amino)nicotinamide]"
< 10,< 65,"CCC[C@@H](Nc1nc(Nc2ccc3c(cnn3C)c2)c(C(N)=O)cc1F)[C@H](C)N [Example 006-236, 6-(((2S,3R)-2-aminohexan-3-yl)amino)-5-fluoro-2-((1-methyl-1H-indazol-5-yl)amino)nicotinamide]"
< 10,< 65,"CCC[C@@H](Nc1nc(Nc2ccc3c(cnn3CC)c2)c(C(N)=O)cc1F)[C@H](C)N [Example 006-237, 6-(((2S,3R)-2-aminohexan-3-yl)amino)-2-((1-ethyl-1H-indazol-5-yl)amino)-5-fluoronicotinamide]"
< 10,< 65,"CCC[C@@H](Nc1nc(Nc2cnc3cc(OCCOC)ccc3c2)c(C(N)=O)cc1F)[C@H](C)N [Example 006-238, 6-(((2S,3R)-2-aminohexan-3-yl)amino)-5-fluoro-2-((7-(2-methoxyethoxy)quinolin-3-yl)amino)nicotinamide]"
< 10,< 65,"CCC[C@@H](Nc1nc(Nc2ccc3c(OC)nccc3c2)c(C(N)=O)cc1F)[C@H](C)N [Example 006-239, 6-(((2S,3R)-2-aminohexan-3-yl)amino)-5-fluoro-2-((1-methoxyisoquinolin-6-yl)amino)nicotinamide]"
< 10,< 65,"CCC[C@@H](Nc1nc(Nc2ccc3nccnc3c2)c(C(N)=O)cc1F)[C@H](C)N [Example 006-240, 6-(((2S,3R)-2-aminohexan-3-yl)amino)-5-fluoro-2-((quinoxalin-6-yl)amino)nicotinamide]"
< 10,65 to 130,"CCC[C@@H](Nc1nc(Nc2cncc3ccccc23)c(C(N)=O)cc1F)[C@H](C)N [Example 006-241, 6-(((2S,3R)-2-aminohexan-3-yl)amino)-5-fluoro-2-((isoquinolin-4-yl)amino)nicotinamide]"
< 10,65 to 130,"CCC[C@@H](Nc1nc(Nc2cnc3ccc(OC)cc3c2)c(C(N)=O)cc1F)[C@H](C)N [Example 006-242, 6-(((2S,3R)-2-aminohexan-3-yl)amino)-5-fluoro-2-((6-methoxyquinolin-3-yl)amino)nicotinamide]"
< 10,65 to 130,"CCC[C@@H](Nc1nc(Nc2ccc3cccnc3c2)c(C(N)=O)cc1F)[C@H](C)N [Example 006-244, 6-(((2S,3R)-2-aminohexan-3-yl)amino)-5-fluoro-2-((quinolin-7-yl)amino)nicotinamide]"
< 10,65 to 130,"CCC[C@@H](Nc1nc(Nc2ccc3nc(C)cnc3c2)c(C(N)=O)cc1F)[C@H](C)N [Example 006-245, 6-(((2S,3R)-2-aminohexan-3-yl)amino)-5-fluoro-2-((2-methylquinoxalin-6-yl)amino)nicotinamide]"
< 10,130 to 200,"CCC[C@@H](Nc1nc(Nc2cncc(-c3ccccc3)c2)c(C(N)=O)cc1F)[C@H](C)N [Example 006-247, 6-(((2S,3R)-2-aminohexan-3-yl)amino)-5-fluoro-2-((5-phenylpyridin-3-yl)amino)nicotinamide]"
< 10,65 to 130,"CCC[C@@H](Nc1nc(Nc2cc(OC)nc(OC)c2)c(C(N)=O)cc1F)[C@H](C)N [Example 006-248, 6-(((2S,3R)-2-aminohexan-3-yl)amino)-2-((2,6-dimethoxypyridin-4-yl)amino)-5-fluoronicotinamide]"
< 10,130 to 200,"CCC[C@@H](Nc1nc(Nc2cnc(C)c(C3CC3)c2)c(C(N)=O)cc1F)[C@H](C)N [Example 006-250, 6-(((2S,3R)-2-aminohexan-3-yl)amino)-2-((5-cyclopropyl-6-methylpyridin-3-yl)amino)-5-fluoronicotinamide]"
< 10,< 65,"CCC[C@@H](Nc1nc(Nc2cccc3c2cnn3C)c(C(N)=O)cc1F)[C@H](C)N [Example 006-251, 6-(((2S,3R)-2-aminohexan-3-yl)amino)-5-fluoro-2-((1-methyl-1H-indazol-4-yl)amino)nicotinamide]"
